This experiment concerns the target Protein kinase C gamma type (Rattus norvegicus, UniProt P63319). The experiment can be described thus: Inhibition of [3H]phorbol-12,13-dibutyrate (PDBu) binding to rat brain protein kinase C gamma regulatory domain.

For 5 compounds, IC50 results are on record in BindingDB's records for doi:10.7270/Q2GM89G6 (n/a, 1995).

For `Cc1ccc2[nH]cc3c2c1N(C)[C@@H](C(C)C)C(=O)N[C@H](CO)C3`, the IC50 – broadly, the point on the concentration scale where inhibition reaches its midpoint – was greater than 100 µM. `CC(C)[C@H]1C(=O)N[C@H](CO)Cc2c[nH]c3ccc4c(c23)N1[C@H](C)C4`: the half-inhibitory concentration (IC50) is 1.26 µM. As for `CC(C)[C@H]1C(=O)N[C@H](CO)Cc2c[nH]c3ccc4c(c23)N1[C@@H](C)C4`, the IC50 worked out at 24 µM. Compound `CC(C)[C@H]1C(=O)N[C@H](CO)Cc2c[nH]c3cccc(c23)N1C` returned a 50% inhibitory concentration (IC50) of 2.75 µM. Turning to `Cc1cc2ccc3[nH]cc4c3c2n1[C@@H](C(C)C)C(=O)N[C@H](CO)C4`, the IC50 came out at 10 µM.
